Laboratory results published in patent US20040225172A1, “Use of ionic liquids to separate olefins, diolefins and aromatics” (NOVA Chemicals (International) S.A., priority 2002, published 2004).
Like-named read-outs stand apart in the source and are kept apart here.

Tests used:
[1] = Cyclo-C8 hydrocarbon solubility in ionic liquids
[2] = C5 hydrocarbon solubility in ionic liquid (volume change of hydrocarbon phase)
Protocol: The locations of all meniscuses were then recorded. […] The testing was conducted at ambient temperature.

[3] = ambient temperature; for Propane absorbed (mol C3H8/L absorbent) / Propylene absorbed (mol C3H6/L absorbent): equilibrium
Protocol: The testing apparatus consists of two sample cylinders (one 1000 cc cylinder and one 150 cc cylinder) connected by ⅛-inch tubing with valves allowing for isolation of each cylinder. A digital pressure gauge indicates the larger cylinder pressure and the pressure of the system when the cylinders are not isolated.
To measure absorption, 50 mL of bmim^+ BF4^− absorbent was loaded into the smaller cylinder and the larger cylinder was pressurized with the hydrocarbon gas. The amount of gas absorbed by the sample of bmim^+BF4^− is proportional to the pressure drop that occurs when the sample is exposed to the test gas, and can be calculated knowing the internal volume of the closed system.
The sample was then exposed to the gas in the large 1000 cc cylinder as the valve separating the cylinders was opened. The initial pressure drop was recorded. The sample was stirred via magnetic stirrer. When the system came to equilibrium (no pressure changed for over 1 hour) the final absorption pressure was recorded and the cylinders were once again separated. This procedure could be repeated for different absorption pressures. Experiments were conducted at ambient temperature.
Between experimental runs, the absorbent was degassed by bubbling a nitrogen entrainment gas through the absorbent for 2 to 3 hours.

[4] = in bmim^+ BF4^− ionic liquid, ambient temperature

**Q.** Which “Solubility in mbpy^+ BF4^− (mol C8/L ionic liquid)” value [1] does the source give for `CCc1ccccc1` [Ethylbenzene, ethylbenzene] here?
**A.** 0.551 mol C8/L ionic liquid

**Q.** Which “Solubility (mol C5/L ionic liquid)” value [2] does the source give for `CCC(C)C` [Isopentane, isopentane] here?
**A.** 0.034 mol C5/L ionic liquid

**Q.** Which “C3H6:C3H8 Selectivity” value ([3]; 50.0 psig) does the source give for `CCCCn1cc[n+](C)c1.F[B-](F)(F)F` [bmim^+ BF4^−, 1-butyl-3-methylimidazolium tetrafluoroborate] here?
**A.** 3.55

**Q.** And the “Propane absorbed (mol C3H8/L absorbent)” value ([3]; 50.0 psig)?
**A.** 0.011 mol C3H8/L absorbent

**Q.** What about the “Propylene absorbed (mol C3H6/L absorbent)” value ([3]; 50.0 psig) of the same compound?
**A.** 0.039 mol C3H6/L absorbent

**Q.** And the “C3H6:C3H8 Selectivity” value ([3]; 72.6 psig)?
**A.** 9.92

**Q.** And the “Propane absorbed (mol C3H8/L absorbent)” value ([3]; 72.6 psig)?
**A.** 0.012 mol C3H8/L absorbent

**Q.** And the “Propylene absorbed (mol C3H6/L absorbent)” value ([3]; 72.6 psig)?
**A.** 0.119 mol C3H6/L absorbent

**Q.** Which “Selectivity over Isopentane” value [2, 4] does the source give for `C=CC(=C)C` [Isoprene, isoprene] here?
**A.** 18.0

**Q.** And the “Solubility (mol C5/L ionic liquid)” value [2, 4]?
**A.** 0.611 mol C5/L ionic liquid

**Q.** Which results are given for `CC=C(C)C` [2-Methyl-2-Butene, 2-methyl-2-butene]?
**A.** Selectivity over Isopentane [2, 4]: 10.6; Solubility (mol C5/L ionic liquid) [2, 4]: 0.360 mol C5/L ionic liquid
